Experimental findings from patent US20240252677A1, “ONE-COMPONENT DELIVERY SYSTEM FOR NUCLEIC ACIDS” (The Trustees of the University of Pennsylvania, priority 2021, published 2024) are described below.

Data set [1] in a line: Serum stability of DNPs, dimensions in 1% fetal bovine serum by DLS. Type of data set: physicochemical. The method, then:
Sample preparation: injected 25 μL ethanol stock solution of IAJD125/155 (80 mg/mL) into the mixture of 462.5 μL acetate buffer (10 mM, pH 4.0) and 12.5 μL Luc-mRNA (4.0 mg/mL in water), followed by vortex for 5 seconds.
Final composition of DNP solution: IAJD125/155 (4.0 mg/mL)+Luc-mRNA (0.1 mg/mL) in 500 μL acetate buffer. The dimension of assemblies in solution was checked by DLS.
DNPs in 1% Serum: Serum (5.5 μL)+[500 μL solution of IAJD (4.0 mg/mL) and Luc-mRNA (0.1 mg/mL].

A short description of data set [2]: Stability of DNPs by DLS after storage at 5° C. Type of data set: physicochemical. Further details: key: Excellent: the original sizes and distribution remains almost the same after storage; Good: the original relatively big sizes became smaller or broad size distribution became narrower; Not stable: the original relatively big sizes or broad size distribution remained almost the similar level, or the original relatively small sizes became bigger or narrow size distribution became broader. Particulars: storage time 2 days; CIAJD 4.0 mg/mL; CLuc-mRNA 0.1 mg/mL; acetate buffer pH 4.0. The method, then:
The stability of the DNPs as assayed by DLS. All the samples are prepared in acetate buffer. The stabilities of the constructs were ranked: Excellent (in bold)—the original sizes and distribution remains almost the same after storage; Good—the original relatively big sizes became smaller or broad size distribution became narrower; Not stable—the original relatively big sizes or broad size distribution remained almost the similar level, or the original relatively small sizes became bigger or narrow size distribution became broader.

Where [3] appears, read: DNPs in acetate buffer (pH 4.0), no serum, IAJD 4.0 mg/mL + Luc-mRNA 0.1 mg/mL.

Take `CCCCCCCCCCCCCCOc1cc(COC(=O)CCCN2CCN(CCO)CC2)cc(OCCCCCCCCCCC)c1` [IAJD 125, 3-(Tetradecyloxy)-5-(undecyloxy)benzyl 4-(4-(2-hydroxyethyl)piperazin-1-yl)butanoate]: the PDI is given as 0.234 in data set [1] (DNPs in 1% Serum, t = 0 min); 0.290 in data set [1] (DNPs in 1% Serum, t = 10 min); 0.303 in data set [1] (DNPs in 1% Serum, t = 20 min); 0.256 in data set [1] (DNPs in 1% Serum, t = 30 min); 0.284 in data set [1] (DNPs in 1% Serum, t = 40 min); 0.339 in data set [1] (DNPs in 1% Serum, t = 50 min). Further, the PDI in data set [1] (DNPs in 1% Serum, t = 60 min) came to 0.258; in data set [1] (setting [3]), 0.273. Also, the “Size (nm)” value came to 207 nm in data set [1] (DNPs in 1% Serum, t = 0 min); 206 nm in data set [1] (DNPs in 1% Serum, t = 10 min); 199 nm in data set [1] (DNPs in 1% Serum, t = 20 min); 197 nm in data set [1] (DNPs in 1% Serum, t = 30 min); 200 nm in data set [1] (DNPs in 1% Serum, t = 40 min); 190 nm in data set [1] (DNPs in 1% Serum, t = 50 min). The “Size (nm)” value in data set [1] (DNPs in 1% Serum, t = 60 min) was 194 nm; in data set [1] (setting [3]), 196 nm.
For `CCCCCCCCCCCOc1cc(COC(=O)c2cc(OCCOCCOCCCC(=O)CCCN3CCCCC3)c(OCCOCCOCCOCc3ccccc3)c(OCCOCCOCCOC(=O)CCCN3CCCCC3)c2)cc(OCC(CC)CCCC)c1` (stereo not drawn) [IAJD 155], the PDI is recorded as 0.186 in data set [1] (DNPs in 1% Serum, t = 0 min); 0.171 in data set [1] (DNPs in 1% Serum, t = 10 min); 0.186 in data set [1] (DNPs in 1% Serum, t = 20 min); 0.173 in data set [1] (DNPs in 1% Serum, t = 30 min); 0.161 in data set [1] (DNPs in 1% Serum, t = 40 min); 0.174 in data set [1] (DNPs in 1% Serum, t = 50 min). In addition, the PDI was 0.149 in data set [1] (DNPs in 1% Serum, t = 60 min) and 0.256 in data set [1] (setting [3]). In addition, the “Size (nm)” value came to 93 nm in data set [1] (DNPs in 1% Serum, t = 0 min); 101 nm in data set [1] (DNPs in 1% Serum, t = 10 min); 105 nm in data set [1] (DNPs in 1% Serum, t = 20 min); 107 nm in data set [1] (DNPs in 1% Serum, t = 30 min); 108 nm in data set [1] (DNPs in 1% Serum, t = 40 min); 111 nm in data set [1] (DNPs in 1% Serum, t = 50 min). The “Size (nm)” value is listed as 108 nm in data set [1] (DNPs in 1% Serum, t = 60 min) and 83 nm in data set [1] (setting [3]).
Regarding “Diheptyl 5,5′-((5-(((4-(4-methylpiperazin-1-yl)butanoyl)oxy)methyl)-1,3-phenylene)bis(oxy)) dipentanoate [IAJD 85]”, the Ranking of stability result in data set [2] is on record as “Excellent”.
